Experiments:
[1] = target: T1, PP2A (Homo sapiens, UniProt P30153+P67775); test: PP2A immunoprecipitation phosphatase assay in SH-EP cells; assay type: cell-based; conditions: 24 h, 10 μM in text (15 μM in Figure 2 legend), control 100 ± 0%
T1 construct: host or cells: SH-EP

[2] = system: SET; test: Immunoblotting of SET in neuroblastoma cells; assay type: cell-based, human; conditions: increasing concentrations, 24 h; four cell lines and two PDXs
Procedure: (§1) Following treatment, cells were lysed on ice using radioimmunoprecipitation (RIPA) buffer with phosphatase inhibitors (P5726, Sigma Aldrich), protease inhibitors (P8340, Sigma Aldrich), and phenylmethanesulfonylfluoride (PMSF, P7626, Sigma Aldrich) for 60 min. Cell lysates were centrifuged at 17,000 rpm for 30 min at 4 °C. Pierce™ BCA Protein Assay (Thermo Fisher Scientific, Inc.) determined protein concentration and proteins were separated by electrophoresis on sodium dodecyl sulfate polyacrylamide (SDS-PAGE) gels. Expected size of the targeted proteins was confirmed using molecular weight markers (Precision Plus Protein Kaleidoscope, Bio-Rad, Hercules, CA, USA). […] Immunoblots were developed with Luminata Classico or Crescendo Western horseradish peroxidase substrate (EMD Millipore, Burlington, MA, USA). Either anti-vinculin or anti-β-actin (as available from manufacturer) served as an internal loading control. We performed densitometry of Western blots using ImageJ software (Ver 1.49, http://imagej.nih.gov/ij (accessed on 9 February 2022).

[3] = system: SK-N-BE(2) cells; test: CellTiter 96 proliferation, SK-N-BE(2); assay type: cell-based; conditions: Homo sapiens, SKNBE2, 24 h
Procedure: (§2) CellTiter 96® Aqueous One Solution Cell Proliferation assay (Promega, Madison, WI, USA) was used to examine proliferation, and alamarBlue® assay (Thermo Fisher Scientific, Inc.) was used to evaluate viability. Cells, concentrations ranging from 5 × 10^3 to 1.5 × 10^4, depending on cell type due to wide variation in growth characteristics between established cell lines and PDX cells, were plated in 96-well plates and treated with increasing doses of 792 or 1154 for 24 h. CellTiter 96® or alamarBlue® dye (10 µL) was added for proliferation and viability assays, respectively. A microplate reader (Epoch Microplate Spectrophotometer, BioTek Instruments, Winooski, VT) measured absorbance at 490 nm for CellTiter 96® and at 570 nm for alamarBlue®, using 600 nm as a reference. […] Experiments were completed with at least three biologic replicates, and data reported as fold change ± SEM. […]
(§3) Supplemental Table S1: Neuroblastoma cells had the highest sensitivity to 792 and 1154.
(§4) (A) SK-N-AS and (B) SK-N-BE(2) cells (1.5 x 104) were plated in 96-well plates and treated with increasing doses of nine PP2A activating compounds for 24 hours. Compounds 792 and 1154 had the lowest LD50s of the nine compounds investigated in both cell lines.
(§5) Supplemental Figure S4: SK-N-AS cells were treated with FTY720 (0, 5 μM), 792 (10 μM), or 1154 (10 μM) for 24 hours and PP2A activity was measured. […]

[4] = system: SK-N-BE(2) cells; test: alamarBlue viability, SK-N-BE(2); assay type: cell-based, human; conditions: 24 h
Procedure: as §2, §3, §4, §5

[5] = system: SH-EP cells; test: Annexin V/PI apoptosis flow cytometry, SH-EP; assay type: cell-based, human; conditions: 10 µM, 24 h
Procedure: Apoptosis was evaluated using the FITC Annexin V Apoptosis Detection Kit (BD Biosciences) according to manufacturer’s protocol. SH-EP cells (5 × 10^5) were treated with either 792 or 1154 (10 µM) for 24 h. Cells were trypsinized, washed with PBS, centrifuged, and re-suspended in 100 μL of 1× binding buffer (0.1 M HEPES/NaOH, 1.4 M NaCl, 25 mM CaCl2, pH 7.4). Annexin V-FITC staining solutions were added, and cells were incubated for 15 min at room temperature (20–25 °C) in the dark. Cells were washed in 1 mL of 1× binding buffer, centrifuged, and re-suspended in 500 μL of 1× binding buffer. PI was added, and cells sat on ice for 1 h prior to flow cytometry. Unstained cells and cells stained with either PI or Annexin V alone were utilized for negative controls and compensation. The percent of Annexin V and/or PI positive cells was determined via flow cytometry using the Attune NxT Flow Cytometer (Invitrogen). Data are represented as percent cell population with Annexin V + PI− stained cells representing early apoptotic cells, Annexin V + PI + cells representing late apoptotic cells, cells not stained with Annexin V or PI representing live cells, and cells stained with PI only representing necrotic or dead cells. FlowJo software (FlowJo, LLC) was used for data analysis. Data reported as mean ± SEM.
Supplemental Figure S6: 792 and 1154 treatment and apoptosis. Cells were serum starved and treated with 792 or 1154 to evaluate the cell cycle as previously described (Figure 4).
(A) The percent of cells in the subG1 (<G1) is reported in tabular form. There was no sig-nificant increase in the subG1 population in any of the cell lines except for SH-EP cells […]
subG1 population, further investigation of apoptosis was performed. Cells were treated with 792 or 1154 (0, 10 µM) for 24 hours and were assessed by flow cytometry of Annexin V/PI dual staining, and FlowJo was used for analysis. […]
significant increase (B) in early apoptosis (Annexin V + PI - cells, quadrant Q3) (C) whereas […]
mechanism behind the effect of these drugs on viability. […]

[6] = system: CIP2A; test: Immunoblotting of CIP2A in neuroblastoma cells; assay type: cell-based, human; conditions: increasing concentrations, 24 h; all cell lines except WAC2 and COA129 treated with 792
Procedure: as §1

T1 sequence (P67775 whole entry): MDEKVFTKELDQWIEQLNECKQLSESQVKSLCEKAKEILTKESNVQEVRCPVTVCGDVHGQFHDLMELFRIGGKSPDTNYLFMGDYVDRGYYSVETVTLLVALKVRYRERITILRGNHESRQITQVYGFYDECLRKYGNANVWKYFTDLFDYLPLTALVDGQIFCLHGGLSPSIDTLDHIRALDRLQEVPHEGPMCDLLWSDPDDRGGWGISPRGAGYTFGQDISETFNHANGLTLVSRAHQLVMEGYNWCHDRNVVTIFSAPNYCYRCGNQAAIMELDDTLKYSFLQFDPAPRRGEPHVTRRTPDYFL
T1 sequence (P30153 2-589 limits assumed): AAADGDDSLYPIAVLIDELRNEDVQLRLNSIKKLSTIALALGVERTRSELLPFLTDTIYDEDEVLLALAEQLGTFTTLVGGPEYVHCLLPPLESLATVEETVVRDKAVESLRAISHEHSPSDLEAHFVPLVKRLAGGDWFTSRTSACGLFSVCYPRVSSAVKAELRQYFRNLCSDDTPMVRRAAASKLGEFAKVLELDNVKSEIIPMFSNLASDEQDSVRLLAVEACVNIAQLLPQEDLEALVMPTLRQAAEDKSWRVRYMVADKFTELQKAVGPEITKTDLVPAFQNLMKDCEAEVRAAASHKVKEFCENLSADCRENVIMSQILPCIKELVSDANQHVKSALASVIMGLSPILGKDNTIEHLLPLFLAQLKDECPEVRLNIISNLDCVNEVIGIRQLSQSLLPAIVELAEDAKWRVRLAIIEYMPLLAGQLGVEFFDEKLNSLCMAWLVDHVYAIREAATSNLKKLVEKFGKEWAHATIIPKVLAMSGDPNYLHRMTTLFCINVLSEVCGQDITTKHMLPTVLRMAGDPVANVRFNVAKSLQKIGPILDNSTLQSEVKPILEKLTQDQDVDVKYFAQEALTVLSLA

In the case of O=S(=O)(NC1CCCC(N2c3ccccc3CCc3ccccc32)C1O)c1ccc(OC(F)(F)F)cc1 (stereo not shown) [DBK-1154], the “PP2A activation (percent PP2A activity)” value [1] is reported as 138.0 ± 16.5%, the SET expression [2] is reported as “unchanged” and the IC50 [3] is reported as 23.8 µM. For the same compound, the LD50 [4] was 16.6 µM, the “late apoptosis (Annexin V/PI)” value [5] was “increased cells in late apoptosis” and the “expression of CIP2A” value [6] was “decreased”.
With O=S(=O)(N[C@H]1COC[C@@H](n2c3ccc(Cl)cc3c3cc(Cl)ccc32)[C@@H]1O)c1ccc(OC(F)(F)F)cc1 [ATUX-792] the “PP2A activation (percent PP2A activity)” value [1] was 117.3 ± 7.2%, the SET expression [2] was “unchanged” and the IC50 [3] was 17.2 µM. The LD50 [4] was 17.2 µM, the “early apoptosis (Annexin V/PI)” value [5] was “significant increase in early apoptosis” and the “late apoptosis (Annexin V/PI)” value [5] was “increased cells in late apoptosis”. The “expression of CIP2A” value [6] was “decreased”.
